Data reported in patent US10954214B2 (Janssen Pharmaceutica NV, priority 2016, dated 2021).

Assays:
[1] = test system: IL6 secretion by TMD8 ABC-DLBCL cells; assay: Human IL6 Mesoscale assay (TMD-8); assay type: cell-based; conditions: Homo sapiens, TMD8; TMD-8 cells, 24 h
Summary of the method: (§1)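 Compounds tested from 15 μM to 58.6 nM (twofold, 9 concentrations) on 100,000 cells per well over 24 h at 37° C, without beta-mercaptoethanol. Secreted cytokine in supernatant detected by MSD electrochemiluminescence; scaling used DMSO as maximum and RN486 as full inhibition.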

[2] = target: full-length MALT1 protein (Strep-MALT1(1-824)-His) (Homo sapiens (Human), UniProt Q9UDY8); assay: MALT1 Biochemical Protease Assay (Ac-LRSR-AMC substrate); conditions: 10 nM FL MALT1, 200 μM Ac-LRSR-AMC, 4 h at RT; read-out: MALT1_Biochemical activity (Ac-LRSR-amc) IC50
Summary of the method: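 Full-length MALT1 pre-incubated with compounds (30 μM to 0.5 nM, 11 threefold steps) for 50 min at RT. After Ac-LRSR-AMC was added, the reaction ran 4 h at RT and AMC fluorescence was read. IC50 and Hill slope from curve fitting against no-enzyme and no-compound controls.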

[3] = test system: IL10 secretion by TMD8 ABC-DLBCL cells; assay: Human IL10 Mesoscale assay (TMD-8); assay type: cell-based; conditions: Homo sapiens, TMD8; TMD-8 cells, 24 h
Summary of the method: as §1

Chain of full-length MALT1 protein (Strep-MALT1(1-824)-His) (Q9UDY8 whole entry): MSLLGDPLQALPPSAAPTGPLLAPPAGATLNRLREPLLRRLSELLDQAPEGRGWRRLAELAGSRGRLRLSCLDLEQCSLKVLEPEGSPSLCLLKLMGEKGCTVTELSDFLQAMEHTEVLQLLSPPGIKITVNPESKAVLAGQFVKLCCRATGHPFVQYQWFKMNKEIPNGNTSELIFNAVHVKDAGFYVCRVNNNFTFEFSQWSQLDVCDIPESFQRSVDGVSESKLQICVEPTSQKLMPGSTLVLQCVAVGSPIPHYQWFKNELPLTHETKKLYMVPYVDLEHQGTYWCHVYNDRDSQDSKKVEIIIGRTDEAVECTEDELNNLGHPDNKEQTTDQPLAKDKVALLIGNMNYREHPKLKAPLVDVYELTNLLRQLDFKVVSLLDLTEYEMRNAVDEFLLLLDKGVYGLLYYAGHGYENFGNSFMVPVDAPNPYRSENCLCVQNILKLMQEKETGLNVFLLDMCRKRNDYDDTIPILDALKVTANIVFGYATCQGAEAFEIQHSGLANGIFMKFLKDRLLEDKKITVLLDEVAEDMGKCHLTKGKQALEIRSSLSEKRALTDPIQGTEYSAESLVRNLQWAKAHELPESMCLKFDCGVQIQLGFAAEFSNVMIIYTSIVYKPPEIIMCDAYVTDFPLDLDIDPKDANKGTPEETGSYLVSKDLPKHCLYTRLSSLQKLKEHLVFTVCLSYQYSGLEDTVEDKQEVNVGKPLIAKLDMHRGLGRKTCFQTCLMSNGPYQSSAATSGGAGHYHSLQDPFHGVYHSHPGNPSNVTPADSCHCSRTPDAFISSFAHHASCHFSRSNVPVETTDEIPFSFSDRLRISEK

Compound | IC50 [1] | IC50 [2] | IC50 [3]
Cc1nc2c(-n3ncc(C(=O)Nc4cnc(-n5nccn5)c(C#N)c4)c3C(F)(F)F)cccc2s1 [Cpd 245, N-(5-cyano-6-(2H-1,2,3-triazol-2-yl)pyridin-3-yl)-1-(2-methylbenzo[d]thiazol-4-yl)-5-(trifluoromethyl)-1H-pyrazole-4-carboxamide] | 708 nM | 389 nM | 141 nM
CN1C(=O)COc2ccc(NC(=O)c3cnn(-c4cccc5ncccc45)c3C(F)(F)F)cc21 [Cpd 214, N-(4-methyl-3-oxo-3,4-dihydro-2H-benzo[b][1,4]oxazin-6-yl)-1-(quinolin-5-yl)-5-(trifluoromethyl)-1H-pyrazole-4-carboxamide] | 2040 nM | 6030 nM | 2240 nM
N#Cc1cc(NC(=O)c2cnn(-c3ccnc4c(F)cccc34)c2C(F)(F)F)cnc1-n1nccn1 [Cpd 92, N-(5-cyano-6-(2H-1,2,3-triazol-2-yl)pyridin-3-yl)-1-(8-fluoroquinolin-4-yl)-5-(trifluoromethyl)-1H-pyrazole-4-carboxamide] | 102 nM | 19 nM | 132 nM
O=C(Nc1cnc(-n2nccn2)c(Cl)c1)c1cnn(-c2c[n+]([O-])cc3ccccc23)c1C(F)(F)F [Cpd 406, 4-(4-((5-chloro-6-(2H-1,2,3-triazol-2-yl)pyridin-3-yl)carbamoyl)-5-(trifluoromethyl)-1H-pyrazol-1-yl)isoquinoline 2-oxide] | 224 nM | 76 nM | 200 nM
O=C(Nc1cnc(-n2nccn2)c(Cl)c1)c1c(F)nn(-c2cccc3ncccc23)c1C(F)(F)F [Cpd 160, N-(5-chloro-6-(2H-1,2,3-triazol-2-yl)pyridin-3-yl)-3-fluoro-1-(quinolin-5-yl)-5-(trifluoromethyl)-1H-pyrazole-4-carboxamide] | 95 nM | 389 nM | 93 nM
Cc1cc(NC(=O)c2cnn(-c3cccc4c(=O)[nH]ccc34)c2C(F)(F)F)c(C)nc1-n1nccn1 [Cpd 161, N-(2,5-dimethyl-6-(2H-1,2,3-triazol-2-yl)pyridin-3-yl)-1-(1-oxo-1,2-dihydroisoquinolin-5-yl)-5-(trifluoromethyl)-1H-pyrazole-4-carboxamide] | > 15100 nM | 282 nM | > 15100 nM
Cc1cc(NC(=O)c2cnn(-c3cccc4ncccc34)c2C(F)(F)F)cnc1-n1ccn(C)c1=O [Cpd 218, N-(5-methyl-6-(3-methyl-2-oxo-2,3-dihydro-1H-imidazol-1-yl)pyridin-3-yl)-1-(quinolin-5-yl)-5-(trifluoromethyl)-1H-pyrazole-4-carboxamide] | 174 nM | 3470 nM | 87 nM
Cn1ccc2c(-n3ncc(C(=O)Nc4cnc(-n5nccn5)c(Cl)c4)c3C(F)(F)F)cccc2c1=O [Cpd 226, N-(5-chloro-6-(2H-1,2,3-triazol-2-yl)pyridin-3-yl)-1-(2-methyl-1-oxo-1,2-dihydroisoquinolin-5-yl)-5-(trifluoromethyl)-1H-pyrazole-4-carboxamide] | 257 nM | 1200 nM | 93 nM
O=C(Nc1cnc(-n2nccn2)c(Cl)c1)c1cnn(-c2cnc(C(F)F)c3sccc23)c1C(F)(F)F [Cpd 398, N-(5-chloro-6-(2H-1,2,3-triazol-2-yl)pyridin-3-yl)-1-(7-(difluoromethyl)thieno[2,3-c]pyridin-4-yl)-5-(trifluoromethyl)-1H-pyrazole-4-carboxamide] | 98 nM | 60 nM | 56 nM
Cc1nc2cccc(-n3ncc(C(=O)Nc4cnc(-n5nccn5)c(C#N)c4)c3C(F)(F)F)c2s1 [Cpd 247, N-(5-cyano-6-(2H-1,2,3-triazol-2-yl)pyridin-3-yl)-1-(2-methylbenzo[d]thiazol-7-yl)-5-(trifluoromethyl)-1H-pyrazole-4-carboxamide] | > 1510 nM | 347 nM | 1780 nM
O=C(Nc1cnc(-n2nccn2)c(Cl)c1)c1cnn(-c2ccc(F)c3cccnc23)c1C(F)(F)F [Cpd 261, N-(5-chloro-6-(2H-1,2,3-triazol-2-yl)pyridin-3-yl)-1-(5-fluoroquinolin-8-yl)-5-(trifluoromethyl)-1H-pyrazole-4-carboxamide] | 794 nM | 195 nM | 479 nM
N#Cc1cc(NC(=O)c2cnn(-c3nncc4ccccc34)c2C(F)(F)F)cnc1-n1nccn1 [Cpd 102, N-(5-cyano-6-(2H-1,2,3-triazol-2-yl)pyridin-3-yl)-1-(phthalazin-1-yl)-5-(trifluoromethyl)-1H-pyrazole-4-carboxamide] | 110 nM | 42 nM | 186 nM
NC(=O)c1nccc2c(-n3ncc(C(=O)Nc4cnc(-n5nccn5)c(Cl)c4)c3C(F)(F)F)cccc12 [Cpd 389, 5-(4-((5-chloro-6-(2H-1,2,3-triazol-2-yl)pyridin-3-yl)carbamoyl)-5-(trifluoromethyl)-1H-pyrazol-1-yl)isoquinoline-1-carboxamide] | 58 nM | 186 nM | 46 nM

Results, then the compound that gave them:

IC50 [1] | IC50 [2] | IC50 [3] | Compound
123 nM | 166 nM | 36 nM | O=C(Nc1cnc(-n2nccn2)c(Cl)c1)c1cnn(-c2cnc(F)c3ccccc23)c1C(F)(F)F [Cpd 264, N-(5-chloro-6-(2H-1,2,3-triazol-2-yl)pyridin-3-yl)-1-(1-fluoroisoquinolin-4-yl)-5-(trifluoromethyl)-1H-pyrazole-4-carboxamide]
7590 nM | 1780 nM | 2510 nM | O=C(Nc1cnc(-n2nccn2)c(Cl)c1)c1cnn(-c2cnc([C@@H]3CCCO3)c3ccccc23)c1C(F)(F)F (single isomer, unassigned) [Cpd 437, (*S)—N-(5-chloro-6-(2H-1,2,3-triazol-2-yl)pyridin-3-yl)-1-(1-(tetrahydrofuran-2-yl)isoquinolin-4-yl)-5-(trifluoromethyl)-1H-pyrazole-4-carboxamide]
35 nM | 155 nM | 56 nM | COC(=O)c1cc(-c2ncc(NC(=O)c3cnn(-c4cccc5ncccc45)c3C(F)(F)F)cc2C#N)nn1C [Cpd 267, methyl 3-(3-cyano-5-(1-(quinolin-5-yl)-5-(trifluoromethyl)-1H-pyrazole-4-carboxamido)pyridin-2-yl)-1-methyl-1H-pyrazole-5-carboxylate]
148 nM | 331 nM | 148 nM | COC(=O)c1cn(-c2ncc(NC(=O)c3cnn(-c4cccc5ncccc45)c3C(F)(F)F)cc2Cl)nn1 [Cpd 249, methyl 1-(3-chloro-5-(1-(quinolin-5-yl)-5-(trifluoromethyl)-1H-pyrazole-4-carboxamido)pyridin-2-yl)-1H-1,2,3-triazole-4-carboxylate]
851 nM | 2140 nM | 468 nM | N#Cc1cc(NC(=O)c2cnn(-c3cc(Cl)nc4ccccc34)c2C(F)(F)F)cnc1-n1nccn1 [Cpd 220, 1-(2-chloroquinolin-4-yl)-N-(5-cyano-6-(2H-1,2,3-triazol-2-yl)pyridin-3-yl)-5-(trifluoromethyl)-1H-pyrazole-4-carboxamide]
> 3020 nM | 13 nM | 204 nM | O=C(Nc1cnc(-n2nccn2)c(Cl)c1)c1cnn(-c2cnc(N3CC(O)C3)c3sccc23)c1C(F)(F)F [Cpd 430, N-(5-chloro-6-(2H-1,2,3-triazol-2-yl)pyridin-3-yl)-1-(7-(3-hydroxyazetidin-1-yl)thieno[2,3-c]pyridin-4-yl)-5-(trifluoromethyl)-1H-pyrazole-4-carboxamide]
> 302 nM | 26300 nM | > 302 nM | O=C(Nc1cncc(-n2nccn2)c1)c1cnn(-c2cccc3c(=O)[nH]ccc23)c1C(F)(F)F [Cpd 363, N-(5-(2H-1,2,3-triazol-2-yl)pyridin-3-yl)-1-(1-oxo-1,2-dihydroisoquinolin-5-yl)-5-(trifluoromethyl)-1H-pyrazole-4-carboxamide]
> 15100 nM | 10000 nM | > 15100 nM | CS(=O)(=O)c1cc(NC(=O)c2cnn(-c3cccc4ncccc34)c2C(F)(F)F)ccc1-n1ccnn1 [Cpd 213, N-(3-(methylsulfonyl)-4-(1H-1,2,3-triazol-1-yl)phenyl)-1-(quinolin-5-yl)-5-(trifluoromethyl)-1H-pyrazole-4-carboxamide]
851 nM | 58 nM | 813 nM | N#Cc1cc(NC(=O)c2cnn(-c3cccc4nccnc34)c2C(F)(F)F)cnc1-n1nccn1 [Cpd 105, N-(5-Cyano-6-(2H-1,2,3-triazol-2-yl)pyridin-3-yl)-1-(quinoxalin-5-yl)-5-(trifluoromethyl)-1H-pyrazole-4-carboxamid]
200 nM | 178 nM | 85 nM | CC(F)(F)c1ncc(-n2ncc(C(=O)Nc3cnc(-n4nccn4)c(Cl)c3)c2C(F)(F)F)c2ccccc12 [Cpd 402, N-(5-chloro-6-(2H-1,2,3-triazol-2-yl)pyridin-3-yl)-1-(1-(1,1-difluoroethyl)isoquinolin-4-yl)-5-(trifluoromethyl)-1H-pyrazole-4-carboxamide]
933 nM | 98 nM | 363 nM | O=C(Nc1cnc(-n2nccn2)c(Cl)c1)c1cnn(-c2cnc(N3CC[C@@H](O)C3)c3sccc23)c1C(F)(F)F [Cpd 432, (R)—N-(5-chloro-6-(2H-1,2,3-triazol-2-yl)pyridin-3-yl)-1-(7-(3-hydroxypyrrolidin-1-yl)thieno[2,3-c]pyridin-4-yl)-5-(trifluoromethyl)-1H-pyrazole-4-carboxamide]
